Mutagenic call data for 9 compounds are collected here from PubChem BioAssay AID1259407 (Chemical Carcinogenesis Research Information System (CCRIS), 2018).

The source made the active and inactive calls. No rule for the calls is given here.

The data set has as its system CCRIS mutagenicity, Ames/micronucleus/aberration tests. Briefly: CCRIS mutagenicity studies.
Setting [1] is: Test System: AMES SALMONELLA TYPHIMURIUM, Strain/Indicator: TA100, Metabolic Activation: NONE, Method: PREINCUBATION
The mark [2] stands for this setting: Test System: AMES SALMONELLA TYPHIMURIUM, Strain/Indicator: TA102, Metabolic Activation: NONE, Method: PREINCUBATION
[3] abbreviates: Test System: AMES SALMONELLA TYPHIMURIUM, Strain/Indicator: TA104, Metabolic Activation: NONE, Method: PREINCUBATION
Where [4] appears, read: Test System: AMES SALMONELLA TYPHIMURIUM, Strain/Indicator: TA1535, Metabolic Activation: NONE, Method: PREINCUBATION
Where [5] appears, read: Test System: AMES SALMONELLA TYPHIMURIUM, Strain/Indicator: TA1537, Metabolic Activation: NONE, Method: PREINCUBATION
[6] abbreviates: Test System: AMES SALMONELLA TYPHIMURIUM, Strain/Indicator: TA100, Metabolic Activation: NONE, Method: STANDARD PLATE.
The mark [7] stands for this setting: Test System: AMES SALMONELLA TYPHIMURIUM, Strain/Indicator: TA98, Metabolic Activation: NONE, Method: STANDARD PLATE.
The mark [8] stands for this setting: Test System: AMES SALMONELLA TYPHIMURIUM, Strain/Indicator: TA100, Metabolic Activation: RAT, LIVER, S-9, AROCLOR 1254, Method: STANDARD PLATE.
Setting [9] is: Test System: AMES SALMONELLA TYPHIMURIUM, Strain/Indicator: TA98, Metabolic Activation: NONE, Method: PREINCUBATION

For the compound `O=O`, the mutagenic call reads like this: (Test System: AMES SALMONELLA TYPHIMURIUM, Strain/Indicator: TA92, Metabolic Activation: NONE, Method: PREINCUBATION) “inactive; negative”; (Test System: AMES SALMONELLA TYPHIMURIUM, Strain/Indicator: TA97, Metabolic Activation: NONE, Method: PREINCUBATION) “inactive; negative”; under setting [1], “inactive; negative”; under setting [2], “active; positive”; under setting [3], “active; positive”; under setting [4], “inactive; negative”. Besides, the mutagenic call by setting is: under setting [5], “inactive; negative”; (Test System: CHINESE HAMSTER V-79, Strain/Indicator: V-79/8-AZAGUANINE, Metabolic Activation: NONE, Method: STANDARD PLATE) “active; positive”; (Test System: CHINESE HAMSTER V-79 CELLS, Strain/Indicator: V-79-UL (HPRT)/6-THIOGUANINE, Metabolic Activation: NONE, Method: SUSPENSION/PLATE) “active; positive”; (Test System: MOUSE LYMPHOMA, Strain/Indicator: L5178Y (TK+/-), Metabolic Activation: NONE, Method: SUSPENSION/PLATE) “active; positive”.
As for `CC(=O)ON(OCc1ccc(Br)cc1)C(=O)c1ccccc1`, the mutagenic call under setting [6] is “active; positive” and the mutagenic call (Test System: AMES SALMONELLA TYPHIMURIUM, Strain/Indicator: TA100, Metabolic Activation: RAT, S-9, AROCLOR, Method: STANDARD PLATE) is “active; positive”.
As for `CC(=O)N(O)c1ccc(Br)cc1`, the mutagenic call under setting [7] was “inactive; negative”; the mutagenic call (Test System: AMES SALMONELLA TYPHIMURIUM, Strain/Indicator: TA98, Metabolic Activation: RAT, LIVER, S-9, AROCLOR 1254, Method: STANDARD PLATE) was “inactive; negative”; the mutagenic call under setting [6] is “inactive; negative”; the mutagenic call under setting [8] is “inactive; negative”.
For `CCC1(CC(=O)O)OCCc2c1[nH]c1c(C)cccc21` (stereo not drawn), the mutagenic call under setting [7] is “inactive; negative”; the mutagenic call (Test System: AMES SALMONELLA TYPHIMURIUM, Strain/Indicator: TA98, Metabolic Activation: RAT, LIVER, S-9, Method: STANDARD PLATE) is “inactive; negative”; the mutagenic call under setting [6] is “inactive; negative”; the mutagenic call (Test System: AMES SALMONELLA TYPHIMURIUM, Strain/Indicator: TA100, Metabolic Activation: RAT, LIVER, S-9, Method: STANDARD PLATE) was “inactive; negative”; the mutagenic call (Test System: AMES SALMONELLA TYPHIMURIUM, Strain/Indicator: TA1535, Metabolic Activation: NONE, Method: STANDARD PLATE) is “inactive; negative”; the mutagenic call (Test System: AMES SALMONELLA TYPHIMURIUM, Strain/Indicator: TA1535, Metabolic Activation: RAT, LIVER, S-9, Method: STANDARD PLATE) is “inactive; negative”. Moreover, the mutagenic call is, setting by setting: (Test System: AMES SALMONELLA TYPHIMURIUM, Strain/Indicator: TA1537, Metabolic Activation: NONE, Method: STANDARD PLATE) “inactive; negative”; (Test System: AMES SALMONELLA TYPHIMURIUM, Strain/Indicator: TA1537, Metabolic Activation: RAT, LIVER, S-9, Method: STANDARD PLATE) “inactive; negative”; (Test System: E. COLI, Strain/Indicator: WP2 UVRA, Metabolic Activation: NONE, Method: STANDARD PLATE) “inactive; negative”; (Test System: E. COLI, Strain/Indicator: WP2 UVRA, Metabolic Activation: RAT, LIVER, S-9, Method: STANDARD PLATE) “inactive; negative”.
For the compound `O[C@@H]1C=Cc2c(ccc3cc4c(ccc5ccccc54)cc23)[C@H]1O`, the mutagenic call under setting [8] was “active; positive”.
For the compound `ClC1=C(Cl)C2(Cl)C3C(Cl)C(Cl)CC3C1(Cl)C2(Cl)Cl` (stereo not drawn), the mutagenic call (Test System: AMES SALMONELLA TYPHIMURIUM, Strain/Indicator: TA98, Metabolic Activation: HAMSTER, LIVER, S-9, AROCLOR 1254 (5, 10 OR 30%), Method: PREINCUBATION) is “inactive; negative”; the mutagenic call under setting [9] was “inactive; negative”; the mutagenic call (Test System: AMES SALMONELLA TYPHIMURIUM, Strain/Indicator: TA98, Metabolic Activation: RAT, LIVER, S-9, AROCLOR 1254 (5, 10 OR 30%), Method: PREINCUBATION) was “inactive; negative”; the mutagenic call (Test System: AMES SALMONELLA TYPHIMURIUM, Strain/Indicator: TA100, Metabolic Activation: HAMSTER, LIVER, S-9, AROCLOR 1254 (30%), Method: PREINCUBATION) was “active; positive”; the mutagenic call (Test System: AMES SALMONELLA TYPHIMURIUM, Strain/Indicator: TA100, Metabolic Activation: NONE, Method: DESICCATOR) was “active; positive”; the mutagenic call under setting [1] was “inactive; negative”. Also, the mutagenic call (Test System: AMES SALMONELLA TYPHIMURIUM, Strain/Indicator: TA100, Metabolic Activation: RAT, LIVER, S-9, AROCLOR 1254 (30%), Method: PREINCUBATION) was “active; positive” and the mutagenic call (Test System: CHINESE HAMSTER V-79, Strain/Indicator: V-79/OUABAIN, Metabolic Activation: NONE, Method: STANDARD PLATE) is “active; positive”.
Turning to `N#CC1=C(C#N)C(=O)C(Cl)=C(Cl)C1=O`, the mutagenic call is, setting by setting: under setting [9], “inactive; negative”; (Test System: AMES SALMONELLA TYPHIMURIUM, Strain/Indicator: TA98, Metabolic Activation: RAT, LIVER, S-9, PHENOBARBITAL AND 5,6-BENZOFLAVONE, Method: PREINCUBATION) “inactive; negative”; under setting [1], “inactive; negative”; under setting [2], “inactive; negative”; (Test System: AMES SALMONELLA TYPHIMURIUM, Strain/Indicator: TA102, Metabolic Activation: RAT, LIVER, S-9, PHENOBARBITAL AND 5,6-BENZOFLAVONE, Method: PREINCUBATION) “inactive; negative”; under setting [3], “active; positive”. Besides, the mutagenic call is, setting by setting: (Test System: AMES SALMONELLA TYPHIMURIUM, Strain/Indicator: TA104, Metabolic Activation: RAT, LIVER, S-9, PHENOBARBITAL AND 5,6-BENZOFLAVONE, Method: PREINCUBATION) “active; positive”; (Test System: AMES SALMONELLA TYPHIMURIUM, Strain/Indicator: TA2637, Metabolic Activation: NONE, Method: PREINCUBATION) “inactive; negative”; (Test System: AMES SALMONELLA TYPHIMURIUM, Strain/Indicator: TA2637, Metabolic Activation: RAT, LIVER, S-9, PHENOBARBITAL AND 5,6-BENZOFLAVONE, Method: PREINCUBATION) “active; positive”.
Take `CCC1(O)C(=O)OCc2c1cc1n(c2=O)Cc2cc3c(N)cccc3nc2-1` (stereo not drawn): the mutagenic call (Test System: Mouse lymphoma, Strain/Indicator: L5178Y (tk+/tk-), Metabolic Activation: None, Method: Suspension/plate) was “active; positive” and the mutagenic call (Test System: Mouse lymphoma, Strain/Indicator: L5178Y (tk+/tk-), Metabolic Activation: Rat, Liver, S-9, Aroclor 1254, Method: Suspension/plate) was “active; positive”.
As to `CCCCCCCCCCCCO`, the mutagenic call is, setting by setting: under setting [9], “inactive; negative”; (Test System: AMES SALMONELLA TYPHIMURIUM, Strain/Indicator: TA98, Metabolic Activation: RAT, LIVER, S-9, KC 500, Method: PREINCUBATION) “inactive; negative”; under setting [1], “inactive; negative”; (Test System: AMES SALMONELLA TYPHIMURIUM, Strain/Indicator: TA100, Metabolic Activation: RAT, LIVER, S-9, KC 500, Method: PREINCUBATION) “inactive; negative”; under setting [4], “inactive; negative”; (Test System: AMES SALMONELLA TYPHIMURIUM, Strain/Indicator: TA1535, Metabolic Activation: RAT, LIVER, S-9, KC 500, Method: PREINCUBATION) “inactive; negative”. In addition, the mutagenic call was “inactive; negative” under setting [5]; “inactive; negative” (Test System: AMES SALMONELLA TYPHIMURIUM, Strain/Indicator: TA1537, Metabolic Activation: RAT, LIVER, S-9, KC 500, Method: PREINCUBATION); “inactive; negative” (Test System: AMES SALMONELLA TYPHIMURIUM, Strain/Indicator: TA1538, Metabolic Activation: NONE, Method: PREINCUBATION); “inactive; negative” (Test System: AMES SALMONELLA TYPHIMURIUM, Strain/Indicator: TA1538, Metabolic Activation: RAT, LIVER, S-9, KC 500, Method: PREINCUBATION); “inactive; negative” (Test System: E. COLI, Strain/Indicator: WP2 UVRA, Metabolic Activation: NONE, Method: PREINCUBATION); “inactive; negative” (Test System: E. COLI, Strain/Indicator: WP2 UVRA, Metabolic Activation: RAT, LIVER, S-9, KC 500, Method: PREINCUBATION).
